This is an account of results in PubChem BioAssay (NCI).

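Compound exposure: 48 hours, 5 concentrations, 96-well plates. GI50 is the concentration that inhibits growth by half. TGI: concentration producing complete growth inhibition.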

Among the test systems are HCC-2998 colon; OVCAR-4 ovarian; ACHN renal; NCI-H460 lung; NCI-H226 lung; NCI/ADR-RES ovarian; HCT-15 colon; SNB-19 CNS; SR leukemia; HOP-92 NSCLC.
Common to all, as to assay: inhibition of tumour cell growth, NCI panel, 48 h

For `CN(C)CCNc1ccc2ncnc3c2c1C(=O)c1ccccc1-3`, the TGI in the assay with HCC-2998 colon came out at 2.92 µM; with OVCAR-4 ovarian, 4.27 µM; in the assay with ACHN renal, 8.77 µM; in the assay on NCI-H460 lung, 5.01 µM; with NCI-H226 lung, 3.74 µM; in the assay on NCI/ADR-RES ovarian, 5.28 µM. Moreover, the TGI was determined as 13.5 µM with HCT-15 colon, 29.8 µM with SNB-19 CNS, 0.915 µM in the assay on SR leukemia and 8.43 µM in the assay with HOP-92 NSCLC.
As for `Cc1nc(Cl)c2sc(=S)n(-c3ccc(F)cc3)c2n1`, the TGI was determined as 20.3 µM in the assay on HCC-2998 colon; 31.4 µM with OVCAR-4 ovarian; 26.8 µM with ACHN renal; 26.5 µM in the assay with NCI-H460 lung; 34.6 µM in the assay on NCI-H226 lung; 25.5 µM with NCI/ADR-RES ovarian. Also, the TGI turned out to be 15.1 µM with HCT-15 colon, 5.06 µM with SNB-19 CNS, 2.99 µM in the assay on SR leukemia and 33.1 µM with HOP-92 NSCLC.
Turning to `CO[C@H]1[C@@H](O)[C@@H](C)O[C@@H](O[C@H]2CC[C@@]3(C)[C@H](CC[C@@H]4[C@@H]3CC[C@]3(C)[C@@H](C5=CC(=O)OC5)CC[C@]43O)C2)[C@@H]1O`, the TGI is 0.173 µM with HCC-2998 colon; 0.0322 µM in the assay with OVCAR-4 ovarian; 0.0102 µM in the assay on ACHN renal; 0.00625 µM in the assay on NCI-H460 lung; 0.135 µM with NCI-H226 lung; 0.0276 µM in the assay on NCI/ADR-RES ovarian. In addition, the TGI in the assay with HCT-15 colon was 0.0419 µM; in the assay on SNB-19 CNS it was 0.211 µM; in the assay on SR leukemia, 0.483 µM; in the assay on HOP-92 NSCLC, 0.0685 µM.
Consider `CCC(CS(=O)(=O)O)[N+](=O)[O-]` (stereo unspecified), for which the TGI in the assay with HCC-2998 colon, with OVCAR-4 ovarian, in the assay with ACHN renal, in the assay with NCI-H460 lung, in the assay with NCI-H226 lung and in the assay on NCI/ADR-RES ovarian was over 100 µM throughout. The TGI in the assay with HCT-15 colon and in the assay with SNB-19 CNS was over 100 µM each time.
For the compound `Nc1ccc2c(c1)C1=NNC(=O)CC1C2` (stereo unspecified), the TGI in the assay with HCC-2998 colon, in the assay on OVCAR-4 ovarian, in the assay on NCI-H460 lung, in the assay on NCI-H226 lung, with NCI/ADR-RES ovarian and in the assay on HCT-15 colon was over 100 µM throughout. Further, the TGI in the assay with SNB-19 CNS and with HOP-92 NSCLC was over 100 µM in each case.
For `COc1ccc(-c2cc(-c3ccccc3)n(C3OCC(OC(C)=O)C(OC(C)=O)C3OC(C)=O)c(=S)c2C#N)cc1` (stereo unspecified), the TGI in the assay on HCC-2998 colon, with OVCAR-4 ovarian, in the assay with ACHN renal, with NCI-H460 lung, in the assay with NCI-H226 lung and in the assay on NCI/ADR-RES ovarian was over 100 µM throughout. Besides, the TGI was over 100 µM in the assay on HCT-15 colon, over 100 µM with SNB-19 CNS, over 100 µM with SR leukemia and 53.6 µM in the assay on HOP-92 NSCLC.
Take `CC1SC(c2ccccc2)N(Nc2c3ccccc3nc3ccccc23)C1=O` (stereo unspecified): the TGI in the assay on HCC-2998 colon, in the assay on OVCAR-4 ovarian, with ACHN renal, in the assay on NCI-H460 lung, with NCI-H226 lung and in the assay on HCT-15 colon was over 100 µM throughout. The TGI in the assay with SNB-19 CNS and in the assay with SR leukemia was over 100 µM in each case.
For the compound `[N-]=[N+]=Nc1ccc(NCCCCCC(=O)ON2C(=O)CCC2=O)c([N+](=O)[O-])c1`, the TGI with OVCAR-4 ovarian, in the assay on ACHN renal, in the assay on NCI-H460 lung, in the assay on NCI-H226 lung, in the assay on NCI/ADR-RES ovarian and with HCT-15 colon was over 100 µM each time. Also, the TGI is over 100 µM in the assay on SNB-19 CNS and 87.6 µM in the assay with HOP-92 NSCLC.
On to `COc1cc(-c2n/c(=C\c3c(O)[nH]c4ccc(Cl)cc34)cc3c2=Nc2ccccc2-3)cc(OC)c1OC`, for which the GI50 in the assay on HCC-2998 colon was 2.98 µM; in the assay on OVCAR-4 ovarian, 0.423 µM; in the assay with ACHN renal, 0.449 µM; with NCI-H226 lung, 3 µM; in the assay on NCI/ADR-RES ovarian, 2.01 µM; with HCT-15 colon it was 1.56 µM. The GI50 with SNB-19 CNS is 1.18 µM; in the assay with SR leukemia it was 0.445 µM; with HOP-92 NSCLC, 1.32 µM. For the same compound, the TGI in the assay with HCC-2998 colon amounted to 11 µM; with OVCAR-4 ovarian, 1.78 µM; in the assay on ACHN renal it was 1.65 µM; in the assay with NCI-H226 lung it was 12 µM; in the assay on NCI/ADR-RES ovarian, 7.55 µM; in the assay with HCT-15 colon, 8.44 µM. In addition, the results for the TGI in the assay with SNB-19 CNS, with SR leukemia and in the assay with HOP-92 NSCLC were 3.84 µM, 4.8 µM and 3.32 µM, respectively.
As for `NCC[Se][Se]CCN`, the TGI with HCC-2998 colon was 24.9 µM; with OVCAR-4 ovarian, 32.1 µM; in the assay on ACHN renal it was 22.8 µM; in the assay with NCI-H460 lung it was 21.9 µM; in the assay on NCI-H226 lung, 29.1 µM; in the assay on NCI/ADR-RES ovarian it was 58 µM. Also, the TGI in the assay with HCT-15 colon was 22.1 µM; with SNB-19 CNS it was 20.7 µM; in the assay on SR leukemia, over 100 µM; with HOP-92 NSCLC, 35.8 µM.
As for `COc1ccc(OC)c([N+](=O)[O-])c1-c1nc2sccn2c1/C=N/N=C(N)N`, the TGI in the assay with HCC-2998 colon was 79.4 µM; in the assay on ACHN renal, over 100 µM; in the assay with NCI-H460 lung, over 100 µM; in the assay with NCI-H226 lung it was over 100 µM; in the assay with NCI/ADR-RES ovarian, over 100 µM; in the assay on HCT-15 colon, over 100 µM. Moreover, the TGI in the assay on SNB-19 CNS, in the assay with SR leukemia and in the assay on HOP-92 NSCLC was over 100 µM throughout.
For the compound `CC(CN(C)C)C(=O)c1ccccc1C(=O)O` (stereo unspecified), the TGI in the assay on OVCAR-4 ovarian was over 100 µM; with ACHN renal, over 100 µM; in the assay on NCI/ADR-RES ovarian, 92.6 µM; in the assay with HCT-15 colon, over 100 µM; in the assay with SNB-19 CNS, over 100 µM; with HOP-92 NSCLC, over 100 µM.
Regarding `O=C(CCCn1c(=O)c2sc3ccccc3c2n2nnc(-c3ccccc3)c12)NCCc1cnc[nH]1`, the GI50 in the assay on HCC-2998 colon was 1.77 µM; in the assay with ACHN renal, 1.66 µM; in the assay on NCI-H460 lung, 1.87 µM; in the assay on NCI-H226 lung, 18.6 µM; in the assay with NCI/ADR-RES ovarian, 3.22 µM; in the assay on HCT-15 colon it was 1.26 µM. Further, the GI50 in the assay with SNB-19 CNS was 1.71 µM. Besides, the TGI was 4.15 µM in the assay with HCC-2998 colon; 3.02 µM with ACHN renal; 3.8 µM in the assay on NCI-H460 lung; 37.7 µM in the assay with NCI-H226 lung; over 100 µM in the assay with NCI/ADR-RES ovarian; 2.51 µM in the assay on HCT-15 colon. In addition, the TGI in the assay on SNB-19 CNS came to 5.04 µM.
Regarding `O=[N+]([O-])c1ccc(N=Nc2c(O)ccc3cc(S(=O)(=O)O)ccc23)cc1`, the TGI in the assay with OVCAR-4 ovarian, in the assay on ACHN renal, in the assay on NCI/ADR-RES ovarian, in the assay on HCT-15 colon, in the assay with SNB-19 CNS and with HOP-92 NSCLC was over 100 µM each time.
Turning to `CNC(C)Cc1ccccc1O` (stereo unspecified), the TGI in the assay on HCC-2998 colon, in the assay on OVCAR-4 ovarian, in the assay with ACHN renal, in the assay on NCI-H460 lung, with NCI-H226 lung and with HCT-15 colon was over 100 µM each time. In addition, the TGI with SNB-19 CNS, in the assay on SR leukemia and in the assay with HOP-92 NSCLC was over 100 µM throughout.
Turning to `CCn1nc(C)c2c1C(=O)NC(C)C(=O)N2` (stereo unspecified), the TGI is over 100 µM in the assay on OVCAR-4 ovarian; over 100 µM in the assay on ACHN renal; over 100 µM in the assay on NCI-H460 lung; 28.3 µM in the assay on HCT-15 colon; over 100 µM in the assay with SNB-19 CNS; over 100 µM in the assay with HOP-92 NSCLC.
In the case of `CC(C)(N)CO[C@H]1C[C@H]2CC[C@@]1(C)C2(C)C`, the TGI is 5.23 µM in the assay on HCC-2998 colon; 74.5 µM with OVCAR-4 ovarian; 95 µM in the assay with ACHN renal; 36.3 µM with NCI-H460 lung; 49.8 µM in the assay on NCI-H226 lung; over 100 µM in the assay on NCI/ADR-RES ovarian. Also, the TGI with HCT-15 colon was 47 µM; in the assay on SNB-19 CNS, 68.5 µM; in the assay on SR leukemia, 81.1 µM; with HOP-92 NSCLC it was 49.1 µM.
Consider `COc1cc2cc[n+](C)c(Cc3ccccc3)c2cc1OC`, for which the TGI with OVCAR-4 ovarian, in the assay with ACHN renal, in the assay on NCI-H460 lung, in the assay with NCI-H226 lung, in the assay on HCT-15 colon and in the assay on SNB-19 CNS was over 100 µM each time. Further, the TGI in the assay on HOP-92 NSCLC was over 100 µM.
In the case of `C=C(C)[C@@H]1CC[C@]2(C)CC[C@]3(C)[C@H](CC[C@@H]4[C@@]5(C)CC[C@H](OC(=O)c6ccccc6)C(C)(C)[C@@H]5CC[C@]43C)[C@@H]12`, the TGI in the assay with HCC-2998 colon, in the assay with OVCAR-4 ovarian, in the assay on ACHN renal, in the assay on NCI-H460 lung, in the assay with NCI-H226 lung and in the assay with NCI/ADR-RES ovarian was over 100 µM throughout. Besides, the TGI in the assay with HCT-15 colon, with SNB-19 CNS, with SR leukemia and in the assay with HOP-92 NSCLC was over 100 µM each time.
With `O=S1(=O)NNC(=NCc2ccc(Cl)c(Cl)c2)c2ccccc21`, the TGI in the assay on HCC-2998 colon, with OVCAR-4 ovarian, in the assay on ACHN renal, in the assay with NCI-H460 lung, in the assay on NCI-H226 lung and in the assay on HCT-15 colon was over 100 µM in each case. The TGI is over 100 µM with SNB-19 CNS, 47.1 µM in the assay with SR leukemia and over 100 µM in the assay with HOP-92 NSCLC.
